According to US4921850A, “3-propenylcephem derivative” (Eisai Co., Ltd., priority 1986, dated 1990):
In brackets after ≈: the same amount, converted by molar mass. Read-outs that look alike come from different tables or passages of the source.

Assays:
in vivo = details: intravenous, physiological saline solution, five ICR male 6 weeks-old mouse, read-out: values of acute toxicity
Text: (1) Acute toxicity in mouse:
The compounds according to this invention dissolved in a physiological saline solution were intravenously dosed to five ICR male 6 weeks-old mouse.

Kleb. pneumoniae EK-6 = assay: Anti-bacterial activity (MIC), agar dilution; format: cell-based; details: Kleb. pneumoniae EK-6, agar dilution, about 10^6 CFU/ml, 18 hours, 37° C.
How it was run: (§1)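 Agar dilution; MH broth overnight cultures → ~10^6 CFU/ml; spotted on MH agar with twofold serial drug dilutions; 18 h, 37° C; MIC in μg/ml.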

Staph. aureus 209-P = assay: Anti-bacterial activity (MIC), agar dilution; format: cell-based; details: Staph. aureus 209-P, agar dilution, about 10^6 CFU/ml, 18 hours, 37° C.
How it was run: as §1

Ser. marcescens ES-75 = assay: Anti-bacterial activity (MIC), agar dilution; format: cell-based; details: Ser. marcescens ES-75, agar dilution, about 10^6 CFU/ml, 18 hours, 37° C.
How it was run: as §1

Pseud. aeruginosa EP-01 = assay: Anti-bacterial activity (MIC), agar dilution; format: cell-based; details: Pseud. aeruginosa EP-01, agar dilution, about 10^6 CFU/ml, 18 hours, 37° C.
How it was run: as §1

[1] = tested on: Morganella morganii EP-14; assay: Anti-bacterial activity (MIC), agar dilution; format: cell-based; details: about 10^6 CFU/ml, 37° C.
How it was run: as §1

Escher. coli NIHJ = assay: Anti-bacterial activity (MIC), agar dilution; format: cell-based; details: Escher. coli NIHJ, agar dilution, about 10^6 CFU/ml, 18 hours, 37° C.
How it was run: as §1

[2] = Klebsiella pneumoniae, EK6, 18 h, read-out: MIC
[3] = Staphylococcus aureus, 209P, 18 h, read-out: MIC
[4] = Serratia marcescens, ES75, 18 h, read-out: MIC
[5] = Pseudomonas aeruginosa, EP01, 18 h, read-out: MIC
[6] = Morganella morganii, EP14, 18 h, read-out: MIC
[7] = Escherichia coli, 18 h, read-out: MIC

Compound | LD50 (in vivo) | MIC (Kleb. pneumoniae EK-6) | MIC (Staph. aureus 209-P) | MIC (Ser. marcescens ES-75) | MIC (Pseud. aeruginosa EP-01) | MIC ([1]; 18 hours) | MIC (Escher. coli NIHJ) | MIC (Kleb. pneumoniae EK-6; [2]) | MIC (Staph. aureus 209-P; [3]) | MIC (Ser. marcescens ES-75; [4]) | MIC (Pseud. aeruginosa EP-01; [5]) | MIC [1, 6] | MIC (Escher. coli NIHJ; [7])
Nc1nc(/C(=N/OCF)C(=O)N[C@@H]2C(=O)N3C(C(=O)[O-])=C(/C=C/C[N+]4(CCO)C[C@H](O)C[C@H]4CO)CS[C@H]23)ns1 (single isomer, unassigned) [Example 7-2, 7β-[2-(5-Amino-1,2,4-thiadiazol-3-yl)-(Z)-2-fluoromethoxyiminoacetamido]-3-[(E)-3-[4R-hydroxy-1-(2-hydroxyethyl)-2S-hydroxymethyl-1-pyrrolidinio]-1-propen-1-yl]-3-cephem-4-carboxylate] | > 2000 mg/kg | ≤ 0.025 µg/mL | 0.2 µg/mL (≈ 0.332 µM) | ≤ 0.025 µg/mL | 0.8 µg/mL (≈ 1.33 µM) | ≤ 0.025 µg/mL | ≤ 0.025 µg/mL |  |  |  |  |  | 
CC(C(N)=O)[N+]1(C/C=C/C2=C(C(=O)[O-])N3C(=O)[C@@H](NC(=O)/C(=N\OCF)c4nsc(N)n4)[C@H]3SC2)CCCC1 (single isomer, unassigned) [Example 13-1] | > 2000 mg/kg |  |  |  |  |  |  | ≤ 0.025 µg/mL | 0.2 µg/mL (≈ 0.343 µM) | ≤ 0.025 µg/mL | 0.8 µg/mL (≈ 1.37 µM) | ≤ 0.025 µg/mL | ≤ 0.025 µg/mL
C[C@@H](C(N)=O)[N+](C)(C)C/C=C/C1=C(C(=O)[O-])N2C(=O)[C@@H](NC(=O)/C(=N\OCF)c3nsc(N)n3)[C@H]2SC1 [Example 3-1] | > 2000 mg/kg |  |  |  |  |  |  | ≤ 0.025 µg/mL | 0.2 µg/mL (≈ 0.359 µM) | 0.05 µg/mL (≈ 0.0898 µM) | 0.8 µg/mL (≈ 1.44 µM) | ≤ 0.025 µg/mL | ≤ 0.025 µg/mL
C[C@H](C(N)=O)[N+](C)(C)C/C=C/C1=C(C(=O)[O-])N2C(=O)[C@@H](NC(=O)/C(=N\OCF)c3nsc(N)n3)[C@H]2SC1 [Example 3-2, 7β-[2-(5-Amino-1,2,4-thiadiazol-3-yl)-(Z)-2-fluoromethoximinoacetamido]-3-[(E)-3-[(1R-carbamoylethyl)dimethylammonio]-1-propen-1-yl]-3-cephem-4-carboxylate] | > 2000 mg/kg |  |  |  |  |  |  | ≤ 0.025 µg/mL | 0.2 µg/mL (≈ 0.359 µM) | 0.1 µg/mL (≈ 0.18 µM) | 1.56 µg/mL (≈ 2.8 µM) | ≤ 0.025 µg/mL | ≤ 0.025 µg/mL
C[N+](C)(C/C=C/C1=C(C(=O)[O-])N2C(=O)[C@@H](NC(=O)/C(=N\OCF)c3nsc(N)n3)[C@H]2SC1)[C@H](CO)C(N)=O [Example 5, 7β-[2-(5-Amino-1,2,4-thiadiazol-3-yl)-(Z)-2-fluoromethoxyiminoacetamido]-3-[(E)-3-[(1R-carbamoyl-2-hydroxyethyl)dimethylammonio]-1-propen-1-yl]-3-cephem-4-carboxylate] | > 2000 mg/kg |  |  |  |  |  |  | ≤ 0.025 µg/mL | 0.2 µg/mL (≈ 0.349 µM) | ≤ 0.025 µg/mL | 0.8 µg/mL (≈ 1.4 µM) | ≤ 0.025 µg/mL | ≤ 0.025 µg/mL
NC(=O)C[N+]1(C/C=C/C2=C(C(=O)[O-])N3C(=O)[C@@H](NC(=O)/C(=N\OCF)c4nsc(N)n4)[C@H]3SC2)CCC(O)C1 (stereo partly drawn) [Example 9-1, 7β-[2-(5-Amino-1,2,4-thiadiazol-3-yl)-(Z)-2-fluoromethoxyiminoacetamido]-3-[(E)-3-(1-carbamoylmethyl-3-hydroxy-1-pyrrolidinio)-1-propen-1-yl]-3-cephem-4-carboxylate] | > 2000 mg/kg |  |  |  |  |  |  | ≤ 0.025 µg/mL | 0.4 µg/mL (≈ 0.684 µM) | ≤ 0.025 µg/mL | 0.8 µg/mL (≈ 1.37 µM) | ≤ 0.025 µg/mL | ≤ 0.025 µg/mL
C[N+]1(C/C=C/C2=C(C(=O)[O-])N3C(=O)[C@@H](NC(=O)/C(=N\OCF)c4nsc(N)n4)[C@H]3SC2)CCN(S(=O)(=O)O)CC1 [Example 10, 7β-[2-(5-Amino-1,2,4-thiadiazol-3-yl)-(Z)-2-fluoromethoxyiminoacetamido]-3-[(E)-3-(1-methyl-4-sulfo-1-piperazinio)-1-propen-1-yl]-3-cephem-4-carboxylate] | > 2000 mg/kg |  |  |  |  |  |  | ≤ 0.025 µg/mL | 0.8 µg/mL (≈ 1.29 µM) | ≤ 0.025 µg/mL | 1.56 µg/mL (≈ 2.51 µM) | ≤ 0.025 µg/mL | ≤ 0.025 µg/mL
